Format in all cases: functional
Experiment [1] relates to Staphylococcus aureus. Briefly: Antimicrobial activity against VanA-type vancomycin-resistant and methicillin-resistant Staphylococcus aureus 1 by broth dilution method. (In general: Dilution methods test growth across graded concentrations, often in twofold steps.)
The test system of experiment [2] is Staphylococcus aureus. In words: Antimicrobial activity against VanA-type vancomycin-resistant and methicillin-resistant Staphylococcus aureus 5 by broth dilution method.
In experiment [3] the test system is Staphylococcus aureus. In words: Antimicrobial activity against VanA-type vancomycin-resistant and methicillin-resistant Staphylococcus aureus 6 by broth dilution method.
Experiment [4] deals with Staphylococcus aureus. In words: Antimicrobial activity against methicillin-resistant Staphylococcus aureus HIP11713 by broth dilution method.

Values after ≈ are worked out from the molar mass of the structure shown.

As for `CN[C@H](CC(C)C)C(=O)N[C@H]1C(=O)N[C@@H](CC(N)=O)C(=O)N[C@H]2C(=O)N[C@H]3C(=O)N[C@H](C(=O)N[C@H](C(=O)O)c4cc(O)cc(O)c4-c4cc3ccc4O)[C@H](O)c3ccc(c(Cl)c3)Oc3cc2cc(c3O[C@@H]2O[C@H](CO)[C@@H](O)[C@H](O)[C@H]2O[C@H]2C[C@](C)(N)[C@H](O)[C@H](C)O2)Oc2ccc(cc2Cl)[C@H]1O` [VANCOMYCIN], the MIC (as a rule, the smallest concentration in the dilution series that meets the test's criterion for growth inhibition) against Staphylococcus aureus [1] worked out at 2050 µg/mL (≈ 1410 µM); in the experiment with Staphylococcus aureus [2], 1020 µg/mL (≈ 707 µM); in the experiment on Staphylococcus aureus [3], 1020 µg/mL (≈ 707 µM).
With `CC(=O)N[C@@H]1[C@H](Oc2c3cc4cc2Oc2ccc(cc2Cl)[C@@H](O[C@@H]2O[C@@H](CO)[C@@H](O)[C@H](O)[C@@H]2NC(C)=O)[C@@H]2NC(=O)[C@H](NC(=O)[C@@H]4NC(=O)[C@H]4NC(=O)[C@@H](Cc5ccc(c(Cl)c5)O3)NC(=O)[C@H](N)c3ccc(O)c(c3)Oc3cc(O)cc4c3)c3ccc(O)c(c3)-c3c(O[C@H]4O[C@H](CO)[C@@H](O)[C@@H](O)[C@@H]4O)cc(O)cc3[C@@H](C(=O)O)NC2=O)O[C@@H](CO)[C@@H](O)[C@@H]1O`, the MIC was determined as 256 µg/mL (≈ 145 µM) against Staphylococcus aureus [1], 64 µg/mL (≈ 36.2 µM) against Staphylococcus aureus [2], 1 µg/mL (≈ 0.566 µM) with Staphylococcus aureus [4] and 128 µg/mL (≈ 72.4 µM) against Staphylococcus aureus [3].

(Values after ChEMBL document CHEMBL1649461, “Fitness cost of VanA-type vancomycin resistance in methicillin-resistant Staphylococcus aureus” (2009).)
